Our source for the IC50 values is patent US20230183237A1, “COMPETITIVE AND NONCOMPETITIVE INHIBITORS OF THE MUSCARINIC ACETYLCHOLINE RECEPTOR M5” (Vanderbilt University, priority 2020, published 2023).

In general, IC50 refers to the midpoint of a concentration-inhibition curve.

In the assay the target is T1, hM5 (Homo sapiens, UniProt P08912).
T1 construct: expressed in transfected cells
T1 sequence (P08912 1-532): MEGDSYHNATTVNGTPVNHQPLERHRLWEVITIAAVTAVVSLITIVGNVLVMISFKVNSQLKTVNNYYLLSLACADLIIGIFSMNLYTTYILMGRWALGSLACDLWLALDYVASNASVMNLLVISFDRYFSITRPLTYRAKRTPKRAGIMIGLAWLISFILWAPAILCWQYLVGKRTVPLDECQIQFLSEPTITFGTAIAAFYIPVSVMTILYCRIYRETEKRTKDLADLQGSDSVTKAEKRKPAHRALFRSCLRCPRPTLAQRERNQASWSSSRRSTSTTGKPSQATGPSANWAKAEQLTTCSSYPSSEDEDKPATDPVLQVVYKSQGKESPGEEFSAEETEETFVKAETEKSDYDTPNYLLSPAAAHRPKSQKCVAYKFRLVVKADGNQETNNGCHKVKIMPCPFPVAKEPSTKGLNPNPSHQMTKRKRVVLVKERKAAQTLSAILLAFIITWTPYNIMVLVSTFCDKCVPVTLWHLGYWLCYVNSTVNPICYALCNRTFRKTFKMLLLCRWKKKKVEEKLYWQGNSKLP
Description: Calcium mobilization concentration-response (IC50 vs EC80 acetylcholine), CHO hM5. To be noted: CELL LINE hM5; vs EC80 acetylcholine; read-out: IC50. The class given is cell-based. The method in brief: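 IC50 values derive from percent maximal acetylcholine response after an EC80 ACh addition, measured as kinetic calcium fluorescence (static ratio, max−min). Test compounds were added 140 s before agonist. Cells: stable hM5-CHO in HEPES-buffered HBSS with 2.5 mM probenecid, pH 7.4; ≥3 independent triplicate determinations.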
A general note: A change in cytosolic calcium serves as a functional read-out for many receptors and channels.
Consider `Cc1cc2ncnn2nc1C1CCN(S(=O)(=O)c2cn(C)nn2)CC1` [Compound 559, 7-methyl-6-(1-((1-methyl-1H-1,2,3-triazol-4-yl)sulfonyl)piperidin-4-yl)-[1,2,4]triazolo[1,5-b]pyridazine], for which the IC50 is > 10 µM.

In the case of `Cc1ncc(S(=O)(=O)N2CCC(F)(c3cn4ncnc4cc3C)CC2)o1` [Compound 560, 5-((4-fluoro-4-(7-methyl-[1,2,4]triazolo[1,5-a]pyridin-6-yl)piperidin-1-yl)sulfonyl)-2-methyloxazole], the IC50 was 3.14 µM.

Take `Cc1cc(S(=O)(=O)N2CCC(F)(c3cn4ncnc4cc3C)CC2)sn1` [Compound 561, 5-((4-fluoro-4-(7-methyl-[1,2,4]triazolo[1,5-a]pyridin-6-yl)piperidin-1-yl)sulfonyl)-3-methylisothiazole]: the IC50 was 0.181 µM.

With `CCc1cc2ncnn2cc1C1CCN(S(=O)(=O)c2cn(C)nn2)CC1` [Compound 562, 7-ethyl-6-(1-((1-methyl-1H-1,2,3-triazol-4-yl)sulfonyl)piperidin-4-yl)-[1,2,4]triazolo[1,5-a]pyridine], the concentration for half-maximal inhibition (IC50) came out at 0.972 µM.

On to `Cn1cc(S(=O)(=O)N2CCC(c3cn4ncnc4cc3C(F)(F)F)CC2)nn1` [Compound 563, 6-(1-((1-methyl-1H-1,2,3-triazol-4-yl)sulfonyl)piperidin-4-yl)-7-(trifluoromethyl)-[1,2,4]triazolo[1,5-a]pyridine], for which the IC50 amounted to 0.234 µM.

As for `Cc1ncc(S(=O)(=O)N2CCC(c3cnc(N(C)C)cc3C)CC2)o1` [Compound 564, N,N,4-trimethyl-5-(1-((2-methyloxazol-5-yl)sulfonyl)piperidin-4-yl)pyridin-2-amine], the 50% inhibitory concentration (IC50) came out at 0.094 µM.

Take `Cc1cc(S(=O)(=O)N2CCC(c3cnc(N(C)C)cc3C)CC2)sn1` [Compound 565, N,N,4-trimethyl-5-(1-((3-methylisothiazol-5-yl)sulfonyl)piperidin-4-yl)pyridin-2-amine]: the IC50 stood at 0.038 µM.

As to `Cc1cc(N(C)C)ncc1C1CCN(S(=O)(=O)c2cnc3sccn23)CC1` [Compound 566, 5-(1-(imidazo[2,1-b]thiazol-5-ylsulfonyl)piperidin-4-yl)-N,N,4-trimethylpyridin-2-amine], the IC50 came out at 0.016 µM.

Consider `[2H]C1([2H])CC(c2cn3ncnc3cc2F)CC([2H])([2H])N1S(=O)(=O)c1cnc(C)o1` [Compound 567, 5-((4-(7-fluoro-[1,2,4]triazolo[1,5-a]pyridin-6-yl)piperidin-1-yl-2,2,6,6-d4)sulfonyl)-2-methyloxazole], for which the IC50 was 1.39 µM.

Turning to `[2H]C1([2H])CC(c2cn3ncnc3cc2C)CC([2H])([2H])N1S(=O)(=O)c1cnc(C)o1` [Compound 568, 2-methyl-5-((4-(7-methyl-[1,2,4]triazolo[1,5-a]pyridin-6-yl)piperidin-1-yl-2,2,6,6-d4)sulfonyl)oxazole], the IC50 is 0.047 µM.

Turning to `[2H]C1([2H])CC(c2cn3ncnc3c(F)c2C)CC([2H])([2H])N1S(=O)(=O)c1cnc(C)o1` [Compound 569, 5-((4-(8-fluoro-7-methyl-[1,2,4]triazolo[1,5-a]pyridin-6-yl)piperidin-1-yl-2,2,6,6-d4)sulfonyl)-2-methyloxazole], the IC50 is 0.174 µM.

`Cn1cc(S(=O)(=O)N2CCC(c3cn4ncnc4cc3F)CC2)nn1` [Compound 571, 7-fluoro-6-(1-((1-methyl-1H-1,2,3-triazol-4-yl)sulfonyl)piperidin-4-yl)-[1,2,4]triazolo[1,5-a]pyridine]: the IC50 was > 10 µM.

As to `Cc1cc2ncnn2cc1C1CCN(S(=O)(=O)c2cn(C)nn2)CC1` [Compound 572, 7-methyl-6-(1-((1-methyl-1H-1,2,3-triazol-4-yl)sulfonyl)piperidin-4-yl)-[1,2,4]triazolo[1,5-a]pyridine], the IC50 is 0.042 µM.

For `COc1c(S(=O)(=O)N2CCC(c3cn4ncnc4cc3C)CC2)cnn1C` [Compound 573, 6-(1-((5-methoxy-1-methyl-1H-pyrazol-4-yl)sulfonyl)piperidin-4-yl)-7-methyl-[1,2,4]triazoto[1,5-a]pyridine], the IC50 stood at 0.012 µM.
